Data published in US5576022A, “Controlled release tacrine drug delivery systems and methods for preparing same” (Warner Lambert Company, priority 1995, dated 1996).

Assays:
[1] = Single-dose 40-mg pharmacokinetics of CR1, CR2, CR6 and CR7 capsules in healthy elderly volunteers (Example 12); type: in vivo, human; settings: all of the formulations
From the text: The study objective was to determine the relative bioavailability and in vivo release characteristics of a 40-mg tacrine IR capsule (CR1) and three prototype 40-mg tacrine CR capsules (CR2, CR6 and CR7) to aid in the development of a tacrine controlled-release formulation. Sixteen healthy volunteers received a single 40-mg tacrine dose of CR1, CR2, CR6, or CR7 according to a randomized, 4-way crossover design (Table 6). Subjects ranged in age from 59 to 77 years (mean=67). […] Serial blood samples were drawn up to 24 hours following each dose and were subsequently analyzed for tacrine, 1-OH tacrine, 2-OH tacrine, and 4-OH tacrine.

[2] = Single-dose 40-mg pharmacokinetics of CR1, CR3, CR4 and CR5 capsules in healthy elderly volunteers (Example 11, Protocol 970-36); settings: all of the formulations
Method: Subjects ranged in age form 50 to 74 years (mean=62). None of the subjects were smokers. Serial blood samples were drawn up to 24 hours following each dose and subsequently analyzed for tacrine.
Lag-time (tlag) between dose administration and apparent start of absorption was determined as the sampling time immediately preceding time of the first quantifiable plasma concentration.
Extent of absorption was assessed by evaluation of AUC(O-tldc) values. […] Relative extent of absorption values based on AUC(O-.infin.) values were similar to those based on AUC(O-tldc).

[3] = background; cited from earlier work

Compound | Plasma 1-OH tacrine concentrations relative to tacrine [1] | Plasma 1-OH tacrine concentrations relative to tacrine [2] | absorption and elimination in words [3]
Nc1c2c(nc3ccccc13)CCCC2O (stereo not drawn) [1-OH tacrine] | approximately three times higher | approximately two times higher | 
Cl.Nc1c2c(nc3ccccc13)CCCC2 [tacrine, 1,2,3,4-tetrahydro-9-acridinamine hydrochloride] |  |  | rapidly absorbed and eliminated
